pIC50: −log10 of the molar value.
These compounds were tested on IL-12 (assay: Human in vitro assay: inhibition of IL-12 production in IFNγ/LPS- or IFNγ/SAC-stimulated human PBMC or THP-1 cells (ELISA)). Settings: read-out: IC50 Range (representative in vitro IC50 data).
Type: cell-based
In short: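 PBMC (5×10^5 cells/well) primed with IFNγ 30 U/mL for 22 h then LPS 1 μg/mL, or IFNγ 100 U/mL then SAC 0.01%; THP-1 primed with IFNγ 100 U/mL for 22 h then SAC 0.025%, with compound in 0.25% DMSO. Supernatant IL-12 p70/p40 measured by sandwich ELISA after 18 h; IC50 derived; viability by MTS.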

| SMILES | pIC50 |
| --- | --- |
| CC(=O)N1CCN(c2cc(C(=O)Nc3ccc4[nH]c(C)c(C)c4c3)nc(N3CCOCC3)n2)CC1 [Compound 257, 6-(4-acetylpiperazin-1-yl)-N-(2,3-dimethyl-1H-indol-5-yl)-2-morpholinopyrimidine-4-carboxamide] | > 6.00 |
| Cc1c(C)n(C)c2ccc(N(C)C(=O)c3cc(OCCN4CCOCC4)nc(N4CCOCC4)n3)cc12 [Compound 31, 2-Morpholin-4-yl-6-(2-morpholin-4-yl-ethoxy)-pyrimidine-4-carboxylic acid methyl-(1,2,3-trimethyl-1H-indol-5-yl)-amide] | ≤ 6.00 |
| Cc1[nH]c2ccc(NC(=O)c3cc(OCC[N+]4([O-])CCOCC4)nc(N4CCOCC4)n3)cc2c1C [Compound 27, 2-Morpholin-4-yl-6-[2-(4-oxy-morpholin-4-yl)-ethoxy]-pyrimidine-4-carboxylic acid (2,3-dimethyl-1H-indol-5-yl)-amide] | > 6.00 |
| Cn1c(=O)sc2cc(NC(=O)Nc3cc(OCCN4CCOCC4)nc(N4CCOCC4)n3)ccc21 [Compound 133, 1-(3-Methyl-2-oxo-2,3-dihydro-benzothiazol-6-yl)-3-[2-morpholin-4-yl-6-(2-morpholin-4-yl-ethoxy)-pyrimidin-4-yl]-urea] | ≤ 6.00 |
| O=C(Nc1nc(OCCc2ccccn2)cc(N2CCOCC2)n1)c1ccncc1 [Compound 76, N-[4-Morpholin-4-yl-6-(2-pyridin-2-yl-ethoxy)-pyrimidin-2-yl]-isonicotinamide] | ≤ 6.00 |
| Cc1[nH]c2ccc(NC(=O)c3cc(NCCO)nc(N4CCOCC4)n3)cc2c1C [Compound 194, N-(2,3-dimethyl-1H-indol-5-yl)-6-(2-hydroxyethylamino)-2-morpholinopyrimidine-4-carboxamide] | > 6.00 |
| COCCN(C)c1cc(C(=O)Nc2nc(C)cc(C)n2)nc(N2CCOCC2)n1 [Compound 240, 6-[(2-Methoxy-ethyl)-methyl-amino]-2-morpholin-4-yl-pyrimidine-4-carboxylic acid (4,6-dimethyl-pyrimidin-2-yl)-amide] | ≤ 6.00 |
| COCCN(C)c1cc(N2CCOCC2)cc(C(=O)Nc2ccc3[nH]c(C)c(C)c3c2)n1 [Compound 156, 6-[(2-Methoxy-ethyl)-methyl-amino]-4-morpholin-4-yl-pyridine-2-carboxylic acid (2,3-dimethyl-1H-indol-5-yl)-amide] | > 6.00 |
| CCc1c[nH]c2ccc(NC(=O)c3cc(N4CCC5(CC4)OCCO5)nc(N4CCOCC4)n3)cc12 [Compound 175, 6-(1,4-Dioxa-8-aza-spiro[4.5]dec-8-yl)-2-morpholin-4-yl-pyrimidine-4-carboxylic acid (3-ethyl-1H-indol-5-yl)-amide] | > 6.00 |
| O=C(Nc1cccc(F)c1)Nc1cc(OCCN2CCOCC2)nc(N2CCOCC2)n1 [Compound 125, 1-(3-Fluoro-phenyl)-3-[2-morpholin-4-yl-6-(2-morpholin-4-yl-ethoxy)-pyrimidin-4-yl]-urea] | > 6.00 |
| O=C(Nc1ccc2[nH]c3c(c2c1)CCCC3)c1cc(N2CCC(O)CC2)nc(N2CCOCC2)n1 [Compound 184, 6-(4-Hydroxy-piperidin-1-yl)-2-morpholin-4-yl-pyrimidine-4-carboxylic acid (6,7,8,9-tetrahydro-5H-carbazol-3-yl)-amide] | > 6.00 |
| Cc1cccc(NC(=O)c2cc(OCCc3ccccn3)nc(N3CCOCC3)n2)n1 [Compound 34, 2-Morpholin-4-yl-6-(2-pyridin-2-yl-ethoxy)-pyrimidine-4-carboxylic acid (6-methyl-pyridin-2-yl)-amide] | ≤ 6.00 |
| O=C(Nc1cccc(I)c1)Nc1cc(OCCN2CCOCC2)nc(N2CCOCC2)n1 [Compound 130, 1-(3-Iodo-phenyl)-3-[2-morpholin-4-yl-6-(2-morpholin-4-yl-ethoxy)-pyrimidin-4-yl]-urea] | > 6.00 |
| CCN(CC)c1cccc(NC(=O)c2cc(OCCN3CCOCC3)nc(N3CCOCC3)n2)c1 [Compound 300, 2-Morpholin-4-yl-6-(2-morpholin-4-yl-ethoxy)-pyrimidine-4-carboxylic acid (3-diethylamino-phenyl)-amide] | ≤ 6.00 |
| Cc1c(C)n(C)c2ccc(NC(=O)c3cc(N4CCOCC4)nc(N4CCOCC4)n3)cc12 [Compound 283, 2,6-Di-morpholin-4-yl-pyrimidine-4-carboxylic acid (1,2,3-trimethyl-1H-indol-5-yl)-amide] | > 6.00 |
| CCCCN(C)C(=O)CNc1cc(C(=O)Nc2ccc3[nH]c(C)c(C)c3c2)nc(N2CCOCC2)n1 [Compound 107, 6-{[(Butyl-methyl-carbamoyl)-methyl]-amino}-2-morpholin-4-yl-pyrimidine-4-carboxylic acid (2,3-dimethyl-1H-indol-5-yl)-amide] | > 6.00 |
| NS(=O)(=O)c1cccc(NC(=O)c2cc(OCCN3CCOCC3)nc(N3CCOCC3)n2)c1 [Compound 50, 2-Morpholin-4-yl-6-(2-morpholin-4-yl-ethoxy)-pyrimidine-4-carboxylic acid (3-sulfamoyl-phenyl)-amide] | ≤ 6.00 |

| SMILES | pIC50 |
| --- | --- |
| Cc1cccc(NNC(=O)c2cc(OCCc3ccccn3)nc(N3CCOCC3)n2)c1 [Compound 79, 2-Morpholin-4-yl-6-(2-pyridin-2-yl-ethoxy)-pyrimidine-4-carboxylic acid N′-m-tolyl-hydrazide] | ≤ 6.00 |
| CC(=O)c1cccc(NC(=O)c2cc(OCCN3CCOCC3)nc(N3CCOCC3)n2)c1 [Compound 152, 2-Morpholin-4-yl-6-(2-morpholin-4-yl-ethoxy)-pyrimidine-4-carboxylic acid (3-acetyl-phenyl)-amide] | ≤ 6.00 |
| COCCN(C)c1cc(C(=O)NCCc2ccc(C)cc2)nc(N2CCOCC2)n1 [Compound 233, 6-[(2-Methoxy-ethyl)-methyl-amino]-2-morpholin-4-yl-pyrimidine-4-carboxylic acid (2-p-tolyl-ethyl)-amide] | ≤ 6.00 |
| O=C(Nc1ccc2c(c1)CCC2)c1cc(OCCN2CCOCC2)nc(N2CCOCC2)n1 [Compound 40, 2-Morpholin-4-yl-6-(2-morpholin-4-yl-ethoxy)-pyrimidine-4-carboxylic acid indan-5-ylamide] | ≤ 6.00 |
| O=C(Nc1cccnc1)c1cc(OCCN2CCOCC2)nc(N2CCOCC2)n1 [Compound 292, 2-Morpholin-4-yl-6-(2-morpholin-4-yl-ethoxy)-pyrimidine-4-carboxylic acid pyridin-3-ylamide] | ≤ 6.00 |
| CCc1c(C)[nH]c2ccc(NC(=O)Nc3cc(C)nc(N4CCOCC4)n3)cc12 [Compound 267, 1-(3-ethyl-2-methyl-1H-indol-5-yl)-3-(6-methyl-2-morpholinopyrimidin-4-yl)urea] | > 6.00 |
| Cc1[nH]c2ccc(NC(=O)c3cc(N4CCC(O)CC4)cc(N4CCOCC4)n3)cc2c1C [Compound 171, 4-Hydroxy-6′-morpholin-4-yl-3,4,5,6-tetrahydro-2H-[1,4′]bipyridinyl-2′-carboxylic acid (2,3-dimethyl-1H-indol-5-yl)-amide] | > 6.00 |
| CCc1c(C)[nH]c2ccc(NC(=O)Nc3cc(N4CCN(c5ccccn5)CC4)nc(N4CCOCC4)n3)cc12 [Compound 269, 1-(3-ethyl-2-methyl-1H-indol-5-yl)-3-(2-morpholino-6-(4-(pyridin-2-yl)piperazin-1-yl)pyrimidin-4-yl)urea] | > 6.00 |
| O=C(Nc1cccc(-n2cccn2)c1)c1cc(OCC(=O)N2CCCCC2)nc(N2CCOCC2)n1 [Compound 115, 2-Morpholin-4-yl-6-(2-oxo-2-piperidin-1-yl-ethoxy)-pyrimidine-4-carboxylic acid (3-pyrazol-1-yl-phenyl)-amide] | > 6.00 |
| O=C(Nc1cccc(N2CCCC2)c1)c1cc(OCCN2CCOCC2)nc(N2CCOCC2)n1 [Compound 278, 2-Morpholin-4-yl-6-(2-morpholin-4-yl-ethoxy)-pyrimidine-4-carboxylic acid (3-pyrrolidin-1-yl-phenyl)-amide] | > 6.00 |
| CCc1c(C)[nH]c2ccc(NC(=O)c3cc(N4CCC(C(N)=O)CC4)nc(N4CCOCC4)n3)cc12 [Compound 183, 6-(4-Carbamoyl-piperidin-1-yl)-2-morpholin-4-yl-pyrimidine-4-carboxylic acid (3-ethyl-2-methyl-1H-indol-5-yl)-amide] | > 6.00 |
| Cc1[nH]c2ccc(NC(=O)c3cc(OCCN4CCOCC4)cc(N4CCOCC4)n3)cc2c1C [Compound 29, 6-Morpholin-4-yl-4-(2-morpholin-4-yl-ethoxy)-pyridine-2-carboxylic acid (2,3-dimethyl-1H-indol-5-yl)-amide] | > 6.00 |
| Cc1c(C)n(C)c2ccc(NC(=O)c3cc(OCCN4CCOCC4)cc(N4CCOCC4)n3)cc12 [Compound 146, 6-Morpholin-4-yl-4-(2-morpholin-4-yl-ethoxy)-pyridine-2-carboxylic acid (1,2,3-trimethyl-1H-indol-5-yl)-amide] | > 6.00 |
| COCCN(C)c1cc(C(=O)Nc2cccc(C(F)(F)F)c2)nc(N2CCOCC2)n1 [Compound 209, 6-((2-methoxyethyl)(methyl)amino)-2-morpholino-N-(3-(trifluoromethyl)phenyl)pyrimidine-4-carboxamide] | ≤ 6.00 |
| CCN(CC)c1cc(C(=O)Nc2ccc3[nH]c(C)c(C)c3c2)nc(N2CCOCC2)n1 [Compound 93, 6-Diethylamino-2-morpholin-4-yl-pyrimidine-4-carboxylic acid (2,3-dimethyl-1H-indol-5-yl)-amide] | > 6.00 |
| CN(CCO)c1cc(C(=O)Nc2cccc(-n3cccn3)c2)nc(N2CCOCC2)n1 [Compound 315, 6-[(2-Hydroxy-ethyl)-methyl-amino]-2-morpholin-4-yl-pyrimidine-4-carboxylic acid (3-pyrazol-1-yl-phenyl)-amide] | > 6.00 |
| CNc1ccc(NC(=O)c2cc(OCCN3CCOCC3)nc(N3CCOCC3)n2)cc1C [Compound 289, 2-Morpholin-4-yl-6-(2-morpholin-4-yl-ethoxy)-pyrimidine-4-carboxylic acid (3-methyl-4-methylamino-phenyl)-amide] | ≤ 6.00 |
